Key:
Assay in all cases: IA-DTB cysteine engagement
Format in all cases: binding
Conditions in all cases: 22Rv1 cells, 20 μM probe, 1 h, relative to DMSO
[1] = target: T1, HMOX2_C265 (Homo sapiens, UniProt P30519)
T1 construct: endogenous in cells; host or cells: 22Rv1
T1 sequence (P30519 1-316): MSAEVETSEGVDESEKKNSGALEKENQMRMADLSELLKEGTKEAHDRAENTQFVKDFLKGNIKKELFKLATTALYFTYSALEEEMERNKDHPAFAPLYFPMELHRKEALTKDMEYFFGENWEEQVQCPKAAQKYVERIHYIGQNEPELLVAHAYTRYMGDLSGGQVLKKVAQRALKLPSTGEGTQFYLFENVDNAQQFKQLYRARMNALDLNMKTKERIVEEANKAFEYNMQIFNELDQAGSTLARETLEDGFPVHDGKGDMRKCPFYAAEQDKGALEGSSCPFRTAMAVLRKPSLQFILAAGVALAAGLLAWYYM
Procedure, shortened: (§1)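 Competitive chemoproteomics: residual cysteine reactivity toward IA-DTB in lysates from probe-treated cells was quantified by TMT reporter ions relative to DMSO-treated controls. Replicates sharing cell line, probe, concentration and duration were averaged.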

[2] = target: T2, MRPS30_C204 (Homo sapiens, UniProt Q9NP92)
T2 construct: endogenous in cells; host or cells: 22Rv1
Procedure, shortened: as §1

[3] = target: T3, NAPIL1_C132 (Homo sapiens, UniProt P55209)
T3 construct: endogenous in cells; host or cells: 22Rv1
T3 sequence (P55209 1-391): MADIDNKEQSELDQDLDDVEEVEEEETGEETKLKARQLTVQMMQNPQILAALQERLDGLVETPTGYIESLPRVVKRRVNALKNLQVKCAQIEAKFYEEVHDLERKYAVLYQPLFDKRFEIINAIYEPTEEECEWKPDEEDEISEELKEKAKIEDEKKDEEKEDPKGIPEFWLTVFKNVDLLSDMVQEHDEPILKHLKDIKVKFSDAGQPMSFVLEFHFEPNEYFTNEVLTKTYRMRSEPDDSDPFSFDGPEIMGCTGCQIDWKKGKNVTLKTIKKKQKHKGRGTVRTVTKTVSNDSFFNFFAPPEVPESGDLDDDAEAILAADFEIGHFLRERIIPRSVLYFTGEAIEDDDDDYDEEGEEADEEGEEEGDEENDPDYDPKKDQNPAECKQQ
Procedure, shortened: as §1

[4] = target: T4, TOMM70_C214 (Homo sapiens, UniProt O94826)
T4 construct: endogenous in cells; host or cells: 22Rv1
T4 sequence (O94826 1-608): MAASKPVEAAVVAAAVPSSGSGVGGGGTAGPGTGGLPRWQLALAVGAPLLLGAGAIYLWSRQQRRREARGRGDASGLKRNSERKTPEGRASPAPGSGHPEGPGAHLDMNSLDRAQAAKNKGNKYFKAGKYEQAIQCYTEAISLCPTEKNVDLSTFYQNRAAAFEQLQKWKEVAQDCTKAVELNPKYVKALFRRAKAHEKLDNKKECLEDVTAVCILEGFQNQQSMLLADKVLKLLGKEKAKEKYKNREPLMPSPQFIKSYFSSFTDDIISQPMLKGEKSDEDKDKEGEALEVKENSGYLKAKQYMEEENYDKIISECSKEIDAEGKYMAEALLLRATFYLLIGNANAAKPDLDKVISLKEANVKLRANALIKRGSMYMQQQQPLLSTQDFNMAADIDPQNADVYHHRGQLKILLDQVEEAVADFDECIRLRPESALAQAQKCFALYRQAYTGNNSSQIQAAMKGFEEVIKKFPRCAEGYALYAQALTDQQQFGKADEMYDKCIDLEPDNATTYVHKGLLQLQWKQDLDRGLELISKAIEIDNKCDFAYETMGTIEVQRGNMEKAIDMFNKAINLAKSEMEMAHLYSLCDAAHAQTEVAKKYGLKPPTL
Procedure, shortened: as §1

% engagement HMOX2_C265 [1]	% engagement MRPS30_C204 [2]	% engagement NAPIL1_C132 [3]	% engagement TOMM70_C214 [4]	SMILES
79.5%	−41.5%	80%	71.5%	C=CC(=O)N1C[C@H](c2ccc(Br)cc2)[C@H]1C(=O)Nc1cccc2cccnc12 [MY-3B, (2S,3S)-1-acryloyl-3-(4-bromophenyl)-N-(quinolin-8-yl)azetidine-2-carboxamide]
73.5%	−37%	6%	29%	C=CC(=O)N1C[C@H](c2ccc(Br)cc2)[C@@H]1C(=O)Nc1cccc2cccnc12 [MY-1B, (2R,3S)-1-acryloyl-3-(4-bromophenyl)-N-(quinolin-8-yl)azetidine-2-carboxamide]
71.75%	1%	25%	30.5%	C=CC(=O)N1C[C@H](c2ccc(Br)cc2)[C@H]1C(=O)Nc1cccc2cccnc12 [MY-3A, (2S,3S)-1-acryloyl-3-(4-bromophenyl)-N-(quinolin-8-yl)azetidine-2-carboxamide]
72.5%	74.5%	−21.5%	7.5%	C=CC(=O)N1C[C@@H](c2ccc(Br)cc2)[C@H]1C(=O)Nc1cccc2cccnc12 [MY-1A, (2S,3R)-1-acryloyl-3-(4-bromophenyl)-N-(quinolin-8-yl)azetidine-2-carboxamide]

Reference: US20250034216A1, “STEREOSELECTIVE COVALENT LIGANDS FOR ONCOGENIC AND IMMUNOLOGICAL PROTEINS” (The Scripps Research Institute, priority 2021, published 2025)
